From the NIST ThermoML archive (doi:10.1021/je100850z)
Values joined by “and” are separate entries in the source; they are usually repeats but may differ in a detail not shown here. Identical values can stand only once.

Key:
[1] = Molar enthalpy of transition or fusion; conditions: Crystal; DSC
[2] = Crystal; for vapor or sublimation pressure: Calculated from knudsen effusion weight loss; for Normal melting temperature: DTA

O=c1c2ccccc2sc2ccccc12 [thioxanthone]
Conditions	Molar enthalpy of transition or fusion [kcal/mol]	Normal melting temperature [°C]
[1]	6.79	–
[2]	–	213.5

[2]
Conditions	vapor or sublimation pressure
369.12 K	0.000187 kPa and 0.000186 kPa and 0.000178 kPa
371.2 K	0.000232 kPa and 0.000226 kPa and 0.000222 kPa
373.26 K	0.000284 kPa and 0.000274 kPa and 0.00027 kPa
375.12 K	0.000335 kPa and 0.00032 kPa and 0.000321 kPa
377.11 K	0.000413 kPa and 0.000405 kPa and 0.000383 kPa
379.2 K	0.000496 kPa and 0.000495 kPa and 0.00048 kPa
381.27 K	0.000611 kPa and 0.000592 kPa and 0.000579 kPa
383.12 K	0.000711 kPa and 0.000701 kPa and 0.000664 kPa
385.27 K	0.000863 kPa and 0.00082 kPa and 0.00081 kPa
387.2 K	0.001018 kPa and 0.001001 kPa and 0.000962 kPa

O=c1c2ccccc2oc2ccccc12 [9H-xanthen-9-one]
Conditions	Molar enthalpy of transition or fusion [kcal/mol]	Normal melting temperature [°C]
[1]	6.36	–
[2]	–	175.2

[2]
Conditions	vapor or sublimation pressure
342.22 K	0.00013 kPa and 0.000132 kPa and 0.000129 kPa
344.15 K	0.000163 kPa and 0.00016 kPa and 0.000157 kPa
346.26 K	0.000197 kPa and 0.000201 kPa and 0.000196 kPa
348.26 K	0.000238 kPa and 0.00024 kPa and 0.000245 kPa
350.26 K	0.000301 kPa and 0.000303 kPa and 0.000295 kPa
354.2 K	0.000451 kPa and 0.000452 kPa and 0.000434 kPa
356.21 K	0.000553 kPa and 0.000546 kPa and 0.000529 kPa
358.26 K	0.000674 kPa and 0.000667 kPa and 0.000658 kPa
360.15 K	0.000814 kPa and 0.000799 kPa and 0.000781 kPa
362.22 K	0.000989 kPa and 0.000954 kPa

O=C1c2ccccc2C(=O)c2ccccc21 [9,10(9H,10H)-anthracenedione]
Conditions	Molar enthalpy of transition or fusion [kcal/mol]	Normal melting temperature [°C]
[1]	8.68	–
[2]	–	283.6

[2]
Conditions	vapor or sublimation pressure
377.06 K	0.000173 kPa and 0.000164 kPa
379.08 K	0.00021 kPa and 0.0002 kPa
381.26 K	0.00025 kPa and 0.000246 kPa
383.26 K	0.000299 kPa and 0.000302 kPa
385.26 K	0.000359 kPa and 0.000352 kPa
391.26 K	0.000618 kPa
393.08 K	0.000743 kPa and 0.000716 kPa
395.03 K	0.000886 kPa

c1ccc2c(c1)Sc1ccccc1S2 [thianthrene]
[2]
Conditions	vapor or sublimation pressure
344.27 K	0.000161 kPa and 0.000163 kPa
346.12 K	0.0002 kPa and 0.000198 kPa and 0.000197 kPa
348.1 K	0.000246 kPa and 0.000243 kPa and 0.000239 kPa
350.26 K	0.000301 kPa and 0.000299 kPa
352.11 K	0.00037 kPa and 0.000368 kPa and 0.000362 kPa
354.1 K	0.000447 kPa and 0.000446 kPa and 0.000439 kPa
356.26 K	0.000549 kPa and 0.00056 kPa and 0.000555 kPa
358.1 K	0.00068 kPa and 0.000687 kPa and 0.000669 kPa
362.05 K	0.000992 kPa and 0.000995 kPa and 0.000973 kPa
364.06 K	0.001197 kPa and 0.001196 kPa and 0.00117 kPa

O=C1c2ccccc2Cc2ccccc21 [9(10H)-anthracenone]
Conditions	Molar enthalpy of transition or fusion [kcal/mol]	Normal melting temperature [°C]
[1]	5.35	–
[2]	–	156.4

[2]
Conditions	vapor or sublimation pressure
346.15 K	0.000131 kPa and 0.000128 kPa
348.14 K	0.000162 kPa and 0.000156 kPa
351.13 K	0.000223 kPa and 0.000217 kPa and 0.000221 kPa
354.18 K	0.000299 kPa and 0.00029 kPa and 0.000307 kPa
355.68 K	0.000359 kPa and 0.000354 kPa and 0.000348 kPa
357.19 K	0.00041 kPa and 0.000405 kPa and 0.000396 kPa
360.15 K	0.000558 kPa and 0.000553 kPa and 0.000533 kPa
363.14 K	0.000744 kPa and 0.000727 kPa and 0.0007 kPa
365.14 K	0.000895 kPa and 0.000879 kPa and 0.00084 kPa
